Results: US10189812B2, “Bi-benzyl isoquinoline derivative, preparation method and use thereof in hepatopathy treatment and prevention” (THE KEY LABORATORY OF CHEMISTRY FOR NATURAL PRODUCTS OF …, priority 2014, dated 2019)
Like-named read-outs stand apart in the source and are kept apart here.

Columns and labels:
[1] = system: PLC/PRF/5 liver cancer cell strains; experiment: Tetrazolium salt reduction method (MTT) on human liver cancer cell strain PLC/PRF/5; format: cell-based
Procedure: 2. human liver cancer cell strains PLC/PRF/5 model discrimination
(§1) Tested methods: Tetrazolium salt reduction method (MTT)
(1) Inoculating cells: A uniform cell suspension was prepared with culture solution containing fetal calf serum (10%). The suspension was implanted into a 96-well cell culture disc by 1000-10000 cells/200 μL per well.
(§2) (2) Culturing cells: The cells were cultured for 3-5 days according to known methods in the art (culturing time depending on experiment objective and requirement).
(§3) (3) Colour response: The cells were cultured for 3-5 days, 20 μl of MTT solution (5 mg/mL, PBS <pH=7.4>) was added in each well, incubated for 4 h. Culture was terminated and the culture suspension was carefully sucked out. As for suspension cells, they need be centrifuged before suspension solution in wells was sucked out. 150 μL of DMSO was added in each well, vibrated for 10 min. The crystal was fully dissolved.
(§4) (4) Colorimetry: Light absorbance values in each well were measured by ELISA at 490 nm and the results were recorded. The cell growth curve was drawn with time as the abscissa and absorbance values as vertical coordinates.
Model principle: Dehydrogenase related to NADP exists in mitochondria of living cell. Yellow MIT is reduced to insoluble blue-purple Formanzan. Dehydrogenase is disappeared in dead cell and MIT can not be reduced. According to reduction extent, action effect of sample on tumor cell is defected.

[2] = system: MHCC97L liver cancer cell strains; experiment: Tetrazolium salt reduction method (MTT) on human liver cancer cell strain MHCC97L; format: cell-based
Procedure: 3. human liver cancer cell strains MHCC97L model discrimination
as §1
(1) Inoculating cells: Inoculating cells: A uniform cell suspension was prepared with culture solution containing fetal calf serum (10%). The suspension was implanted into a 96-well cell culture disc by 1000-10000 cells/200 μL per well.
as §2, §3, §4
Model principle: Dehydrogenase related to NADP exists in mitochondria of living cell. Yellow MTT is reduced to insoluble blue-purple Formanzan. Dehydrogenase is disappeared in dead cell and MTT can not be reduced. According to reduction extent, action effect of sample on tumor cell is defected.

[3] = Homo sapiens, PLC-PRF-5, read-out: PLC/PRF/5 IC50 (μM)
[4] = Homo sapiens, MHCC97L, read-out: MHCC97L IC50 (μM)
[5] = MTT, cells cultured 3-5 days, read-out: PLC/PRF/5 IC50
[6] = MTT, cells cultured 3-5 days, read-out: MHCC97L IC50
[7] = Homo sapiens, PLC-PRF-5, MTT, cells cultured 3-5 days, read-out: PLC/PRF/5 IC50
[8] = Homo sapiens, MHCC97L, MTT, cells cultured 3-5 days, read-out: MHCC97L IC50

Row | Compound | IC50 [1, 5] [µM] | IC50 [2, 6] [µM] | IC50 [1, 7] [µM] | IC50 [2, 8] [µM] | other results
1 | COc1cc(NC(C)=O)c2cc1Oc1ccc(cc1)C[C@H]1c3cc(c(OC)cc3CCN1C)Oc1c(OC)c(OC)cc3c1[C@H](C2)N(C)CC3 [Compound H-01] | – | – | – | – | IC50 [1, 3]: 12.3 µM; IC50 [2, 4]: 12.9 µM
2 | COc1ccc(C(=O)Nc2cc(OC)c3cc2C[C@H]2c4c(cc(OC)c(OC)c4Oc4cc5c(cc4OC)CCN(C)[C@H]5Cc4ccc(cc4)O3)CCN2C)cc1 [Compound H-04] | 5.4 | 12.2 | – | – | –
3 | COc1cc(NC(=O)OCC(C)C)c2cc1Oc1ccc(cc1)C[C@H]1c3cc(c(OC)cc3CCN1C)Oc1c(OC)c(OC)cc3c1[C@H](C2)N(C)CC3 [Compound H-08] | 4.6 | 1.4 | – | – | –
4 | COc1cc(NC(=O)COC(C)=O)c2cc1Oc1ccc(cc1)C[C@H]1c3cc(c(OC)cc3CCN1C)Oc1c(OC)c(OC)cc3c1[C@H](C2)N(C)CC3 [Compound H-13] | 10.1 | 8.4 | – | – | –
5 | COC(=O)C(=O)Nc1cc(OC)c2cc1C[C@H]1c3c(cc(OC)c(OC)c3Oc3cc4c(cc3OC)CCN(C)[C@H]4Cc3ccc(cc3)O2)CCN1C [Compound H-14] | 12.7 | 7.9 | – | – | –
6 | COc1cc([N+](=O)[O-])c2cc1Oc1ccc(cc1)C[C@H]1c3cc(c(OC)cc3CCN1C)Oc1c(OC)c(OC)cc3c1[C@H](C2)N(C)CC3 [Compound H-27] | – | – | – | – | IC50 [1, 3]: 2.9 µM; IC50 [2, 4]: 1.9 µM
7 | COc1cc([N+](=O)[O-])c2cc1Oc1ccc(cc1)C[C@H]1c3cc(c(OC)cc3CCN1C)Oc1c(OC)c(OC)c([N+](=O)[O-])c3c1[C@H](C2)N(C)CC3 [Compound H-28] | – | – | 20.1 | 8.1 | –
8 | COc1ccc2cc1Oc1ccc(cc1)C[C@H]1c3cc(c(OC)cc3CCN1C)Oc1c(OCc3ccccc3)c(OC)cc3c1[C@H](C2)[N+](C)(Cc1ccccc1)CC3 (some centres unmarked) [Compound H-31] | – | – | – | – | IC50 [1, 3]: 12.7 µM; IC50 [2, 4]: 12.7 µM
9 | COc1cc2c3cc1Oc1c(OC)c(OC)c(Br)c4c1[C@H](Cc1c([N+](=O)[O-])cc(OC)c(c1Br)Oc1ccc(cc1)C[C@@H]3N(C)CC2)N(C)CC4 [Compound H-36] | – | – | 11.9 | 12.1 | –
10 | C=C(OC)/C(OC)=C1/Oc2cc3c(cc2OC)CCN(C)[C@H]3Cc2ccc(cc2)Oc2cc(c(S(=O)(=O)O)cc2OC)C[C@H]2C1=CCCN2C [Compound H-37] | – | – | 7.6 | 7.3 | –
11 | COc1cc(S(=O)(=O)O)c2cc1Oc1ccc(cc1)C[C@H]1c3cc(c(OC)cc3CCN1C)Oc1c(OC)c(OC)c(Br)c3c1[C@H](C2)N(C)CC3 [Compound H-40] | 10.5 | 9.2 | – | – | –
12 | COc1cc2c3cc1Oc1c(OC)c(OC)c(Br)c4c1[C@H](Cc1c(S(=O)(=O)O)cc(OC)c(c1Br)Oc1ccc(cc1)C[C@@H]3N(C)CC2)N(C)CC4 [Compound H-41] | – | – | 9 | 8.6 | –
13 | COc1ccc2cc1Oc1ccc(cc1)C[C@H]1c3cc(c(OC)cc3CCN1C)Oc1c(ON=O)c(OC)cc3c1[C@H](C2)N(C)CC3 [Compound H-42] | – | – | 3.4 | 9.6 | –
14 | COc1cc([N+](=O)[O-])c2cc1Oc1ccc(cc1)C[C@H]1c3cc(c(OC)cc3CCN1C)Oc1c(OC)c(OC)c(Cl)c3c1[C@H](C2)N(C)CC3 [Compound H-43] | – | – | 8.1 | 8.8 | –
15 | COc1cc2c3cc1Oc1c(OC)c(OC)c(Cl)c4c1[C@H](Cc1c([N+](=O)[O-])cc(OC)c(c1Cl)Oc1ccc(cc1)C[C@@H]3N(C)CC2)N(C)CC4 [Compound H-44] | 4.1 | 9.4 | – | – | –
16 | COc1ccc2cc1Oc1ccc(cc1)C[C@H]1c3cc(c(OC)cc3CCN1C)Oc1c(OC(C)=O)c(OC)c(Br)c3c1[C@H](C2)N(C)CC3 [Compound H-48] | – | – | – | – | IC50 [1, 3]: 0.5 µM; IC50 [2, 4]: 4.1 µM
17 | COc1cc(Br)c2cc1Oc1ccc(cc1)C[C@H]1c3cc(c(OC)cc3CCN1C)Oc1c(OC(C)=O)c(OC)c(Br)c3c1[C@H](C2)N(C)CC3 [Compound H-49] | – | – | – | – | IC50 [1, 3]: 2.4 µM; IC50 [2, 4]: 8.7 µM
18 | COc1cc(Cl)c2cc1Oc1ccc(cc1)C[C@H]1c3cc(c(OC)cc3CCN1C)Oc1c(OC(C)=O)c(OC)c(Cl)c3c1[C@H](C2)N(C)CC3 [Compound H-50] | 9.8 | 3.3 | – | – | –
19 | COc1cc2c3cc1Oc1c(OC(C)=O)c(OC)c(Cl)c4c1[C@H](Cc1c(Cl)cc(OC)c(c1Cl)Oc1ccc(cc1)C[C@@H]3N(C)CC2)N(C)CC4 [Compound H-51] | – | – | – | – | IC50 [1, 3]: 1.4 µM; IC50 [2, 4]: 10.4 µM
20 | COc1cc(Cl)c2cc1Oc1ccc(cc1)C[C@H]1c3cc(c(OC)cc3CCN1C)Oc1c(OC)c(OC)c(Br)c3c1[C@H](C2)N(C)CC3 [Compound H-54] | – | – | 3.2 | 0.4 | –

Second part, led by results:

Row | IC50 [1, 5] [µM] | IC50 [2, 6] [µM] | IC50 [1, 7] [µM] | IC50 [2, 8] [µM] | Compound | other results
21 | – | – | 10.1 | 9.1 | COc1cc(NC(=O)CO)c2cc1Oc1ccc(cc1)C[C@H]1c3cc(c(OC)cc3CCN1C)Oc1c(OC)c(OC)cc3c1[C@H](C2)N(C)CC3 [Compound H-12] | –
22 | – | – | 4.6 | 9.8 | COc1cc(NS(C)(=O)=O)c2cc1Oc1ccc(cc1)C[C@H]1c3cc(c(OC)cc3CCN1C)Oc1c(OC)c(OC)cc3c1[C@H](C2)N(C)CC3 [Compound H-17] | –
23 | 10.7 | 9.1 | – | – | COc1cc(NS(=O)(=O)c2ccccc2)c2cc1Oc1ccc(cc1)C[C@H]1c3cc(c(OC)cc3CCN1C)Oc1c(OC)c(OC)cc3c1[C@H](C2)N(C)CC3 [Compound H-18] | –
24 | 10.8 | 11.3 | – | – | COc1cc(NS(=O)(=O)c2ccccc2[N+](=O)[O-])c2cc1Oc1ccc(cc1)C[C@H]1c3cc(c(OC)cc3CCN1C)Oc1c(OC)c(OC)cc3c1[C@H](C2)N(C)CC3 [Compound H-21] | –
25 | 2.1 | 5.6 | – | – | COc1cc(NS(=O)(=O)c2ccc(Cl)cc2Cl)c2cc1Oc1ccc(cc1)C[C@H]1c3cc(c(OC)cc3CCN1C)Oc1c(OC)c(OC)cc3c1[C@H](C2)N(C)CC3 [Compound H-22] | –
26 | – | – | 14.8 | 10.1 | COc1cc(N)c2cc1Oc1ccc(cc1)C[C@H]1c3cc(c(OC)cc3CCN1C)Oc1c(OC)c(OC)cc3c1[C@H](C2)N(C)CC3 [Compound H-29] | –
27 | – | – | – | 10.7 | COc1cc(N=O)c2cc1Oc1ccc(cc1)C[C@H]1c3cc(c(OC)cc3CCN1C)Oc1c(OC)c(OC)cc3c1[C@H](C2)N(C)CC3 [Compound H-30] | –
28 | – | – | 8.9 | 1.26 | COc1cc([N+](=O)[O-])c2cc1Oc1ccc(cc1)C[C@H]1c3cc(c(OC)cc3CCN1C)Oc1c(OCc3ccccc3)c(OC)cc3c1[C@H](C2)N(C)CC3 [Compound H-32] | –
29 | – | – | 9.3 | – | COc1cc([N+](=O)[O-])c2cc1Oc1ccc(cc1)C[C@H]1c3cc(c(OC)cc3CCN1C)Oc1c(OC(=O)c3ccccc3)c(OC)cc3c1[C@H](C2)N(C)CC3 [Compound H-33] | –
30 | – | – | 7.8 | 6.6 | COc1cc(N)c2cc1Oc1ccc(cc1)C[C@H]1c3cc(c(OC)cc3CCN1C)Oc1c(OC(=O)c3ccccc3)c(OC)cc3c1[C@H](C2)N(C)CC3 [Compound H-34] | –
31 | – | – | 10.2 | 10.7 | COc1cc(S(=O)(=O)Nc2ccccc2)c2cc1Oc1ccc(cc1)C[C@H]1c3cc(c(OC)cc3CCN1C)Oc1c(OC)c(OC)cc3c1[C@H](C2)N(C)CC3 [Compound H-38] | –
32 | – | – | 8.1 | 9.9 | COc1cc(S(=O)(=O)OC)c2cc1Oc1ccc(cc1)C[C@H]1c3cc(c(OC)cc3CCN1C)Oc1c(OC)c(OC)cc3c1[C@H](C2)N(C)CC3 [Compound H-39] | –
33 | – | – | 11.7 | 8.9 | COc1cc(S(=O)(=O)O)c2cc1Oc1ccc(cc1)C[C@H]1c3cc(c(OC)cc3CCN1C)Oc1c(OC(=O)c3ccccc3)c(OC)cc3c1[C@H](C2)N(C)CC3 [Compound H-45] | –
34 | 6.7 | 9.7 | – | – | COc1cc([N+](=O)[O-])c2cc1Oc1ccc(cc1)C[C@H]1c3cc(c(OC)cc3CCN1C)Oc1c(OC(=O)c3ccccc3)c(OC)cc3c1[C@H](C2)N(C)CC3 [Compound H-52] | –
35 | – | – | 3.2 | 1.1 | COc1cc(S(=O)(=O)O)c2cc1Oc1ccc(cc1)C[C@H]1c3cc(c(OC)cc3CCN1C)Oc1c(O)c(OC)cc3c1[C@H](C2)N(C)CC3 [Compound H-53] | –
